Key:
[1] = system: neonatal foreskin fibroblasts; assay: Leukocyte killing with drug present, [3H]-thymidine labelling; assay type: cell-based, human; conditions: 60 ng/mL with leukocytes, 48 hr; 100:1 ratio of effector:target cells
Description: (§1) Leukocytes obtained by lysis of human peripheral blood were added to 5000 MM96L human melanoma cells or 7000 neonatal foreskin fibroblasts per microtitre well at effector: target ratios of 1000, 100 and 10:1. Ing9 (60 ng/mL) was added and after 48 hr incubation the cultures were washed and labelled with [3H]-thymidine for 2 hr. […] Untreated leukocytes had no effect on cell survival.

[2] = system: MM96L human melanoma cells; assay: Killing by untreated leukocytes of drug-pretreated target cells; assay type: cell-based; conditions: target cells treated with 60 ng/mL for 20 hr and washed before leukocytes; 100:1 ratio of effector:target cells
Description: (§2) Leukocytes obtained by lysis of human peripheral blood were added to 5000 MM96L human melanoma cells or 7000 neonatal foreskin fibroblasts per microtitre well at effector: target ratios of 1000, 100 and 10:1. The target cells had been treated with 60 ng/mL PEP008 for 20 hr beforehand, and washed and the medium replaced before the leukocytes were added. After 48 hr incubation with the leukocytes the cultures were washed and labelled with [3H]-thymidine for 2 hr. […] Untreated leukocytes had no effect on cell survival.

[3] = system: MM96L human melanoma cells; assay: Leukocyte killing with drug present, [3H]-thymidine labelling; assay type: cell-based; conditions: 60 ng/mL with leukocytes, 48 hr; 100:1 ratio of effector:target cells
Description: as §1

[4] = system: neonatal foreskin fibroblasts; assay: Killing by untreated leukocytes of drug-pretreated target cells; assay type: cell-based, human; conditions: target cells treated with 60 ng/mL for 20 hr and washed before leukocytes; 100:1 ratio of effector:target cells
Description: as §2

[5] = system: peripheral blood mononuclear cells (PBMCs); assay: Phagocytosis with fluorescent beads; assay type: cell-based; conditions: whole heparinized blood, 30 min at 37° C.
Description: Phagocytosis by peripheral blood mononuclear cells (PBMCs) was assayed (Steinkamp et al., 1982) using 1 μm Fluoresbrite™ yellow-green fluorescent latex spheres (Polysciences, Inc., Warrington, Pa.). A sample of whole, heparinized blood was treated with drug and 5×10E7 fluorescent latex beads in 10 μL of PBS added per mL of suspension. Cells were incubated and maintained in suspension for 30 min by means of a shaker platform at 37° C. The stimulated and non-stimulated samples were then lysed to isolate PBMCs. The PBMCs were run on the flow cytometer measuring FITC (excitation at 488 nm, emission at 525±20 nm), gated for fluorescence (phagocytosed spheres) and light scatter (cell size).

**Q.** What does the source list for C/C=C(/C)C(=O)O[C@H]1C(C)=C[C@]23C(=O)[C@@H](C=C(COC(C)=O)[C@@H](O)[C@]12O)[C@H]1[C@@H](C[C@H]3C)C1(C)C [PEP008, 20-O-acetyl-ingenol-3-angelate]?
**A.** survival of normal fibroblasts [1]: 100%; survival of melanoma cells [2]: 12%; survival of melanoma cells [3]: 9%; survival of normal fibroblasts [4]: 100%; phagocytosis of fluorescent latex spheres in PBMCs [5]: stimulate phagocytosis
